Test results as given in patent US20250109127A1, “METHODS OF USE OF PHENOXYPROPYLAMINE COMPOUNDS TO TREAT DEPRESSION” (Minerva Neurosciences, Inc., priority 2013, published 2025).
Entries after “also recorded” stand apart in the source; their conditions may differ. Structures can show the parent of a compound that is named as a salt.

Key:
[1] = biological target: 5-HT2A (Homo sapiens, UniProt P28223); experiment: Receptor binding, 5-HT2A
[2] = tested on: 5-HT1A, 5-HTT, 5-HT2A; experiment: Electrophysiological studies; conditions: first 5-HT1A is presynaptic
[3] = Pharmacokinetic study, plasma concentration on day 1 and day 14; type: in vivo; conditions: day 1 and day 14 after dosing with SON-117
Description: were examined in pharmacokinetic studies.
FIG. 34 illustrates the plasma concentration of SON-117 as a function of time on day 1 after dosing with SON-117. FIG. 35 illustrates the plasma concentration of SON-117 as a function of time on day 14 after dosing with SON˜117.
FIG. 36 illustrates the plasma concentration of the M1 metabolite of SON-117 as a function of time on day 1 after dosing with SON-117. FIG. 37 illustrates the plasma concentration of the M1 metabolite of SON-117 as a function of time on day 14 after dosing with SON-117.

[4] = tested on: sleep EEG parameters; experiment: Polysomnography / sleep EEG study; type: in vivo, human
Method: In this study, certain pharmacodynamic sleep parameters predictive of antidepressant activity were monitored and measured. […] Three doses of SON-117 were tested (1 mg, 3 mg, 7.5 mg). […] In an embodiment, SON-117 affected sleep. In an embodiment, SON-117 affected REM sleep.
[…] subjects were tested in a sleep study, where 23 subjects were dosed with SON-117 in amounts of 1 mg up to 7.5 mg; 12 were given a placebo; and 8 were given escitalopram at a dose of 20 mg. Sleep was recorded in individual sound-attenuated and comfortably furnished bedrooms. During bedtime hours subjects were recumbent and the lights are turned off. The polysomnographic montage consisted of 4 EEG channels (C3A2, O1A2, C4A1, and O2A1), bilateral electro-oculograms, and 2 submental electromyograms. The different sleep parameters were derived with the Hypnos software from the visual scoring of the recordings at 30 sec epochs according to Rechtschaffen and Kales (1968) rules. Sleep continuity parameters comprise both sleep initiation and sleep maintenance variables. Sleep architecture parameters, which include REM sleep parameters, comprise stages distribution variables documenting duration and proportion of the different sleep stages and sleep profile variables that provide an outline on the time course of the different sleep stages during the recording period. All night sleep EEG spectral analysis was carried out on the C3-A2 derivation by means a fast Fourrier transform algorithm. Epoch length was 2 seconds at a sampling rate of 256 Hz and truncating error was reduced by applying a Hanning window. Sleep visual scores of each 30-second epoch was synchronised with power density values in order to allow the analysis of power density within in specific period of time such as REM and non REM sleep.

[5] = tested on: animals exposed to chronic mild stress; experiment: Chronic mild stress (CMS) model, consumption of 1% sucrose solution; type: in vivo, rat; conditions: for effect on sucrose intake one week after cessation of treatments: stressed animals
Method: Male Wistar rats (Charles River, Germany) were brought into the laboratory one month before the start of the experiment. Except as described below, the animals were singly housed with food and water freely available, and were maintained on a 12-h light/dark cycle, in a constant temperature (22±2° C.) and humidity (50±5%) conditions.
After a period of 2 weeks of adaptation to laboratory and housing conditions, the animals were first trained to consume a 1% sucrose solution; training consisted of nine 1 h baseline tests in which sucrose was presented, in the home cage, following 14 h food and water deprivation; the sucrose intake was measured by weighing pre-weighed bottles containing the sucrose solution, at the end of the test. Subsequently, the sucrose consumption was monitored, under similar conditions, at weekly intervals throughout the whole experiment.
On the basis of their sucrose intakes in the final baseline test, the animals were divided into two matched groups. One group of animals was subjected to the chronic mild stress procedure for a period of 8 consecutive weeks. Each week of stress regime consisted of: two periods of food or water deprivation, two periods of 45 degree cage tilt, two periods of intermittent illumination (lights on and off every 2 h), two periods of soiled cage (250 ml water in sawdust bedding), one period of paired housing, two periods of low intensity stroboscopic illumination (150 flashes/min), and three periods of no stress. All stressors were 10-14 h of duration and were applied individually and continuously, day and night. Control animals were housed in separate rooms and had no contact with the stressed animals. They were deprived of food and water for the 14 h preceding each sucrose test, but otherwise food and water were freely available in the home cage.
On the basis of their sucrose intakes following initial 2 weeks of stress, both the stressed and the control groups were each divided further into matched subgroups (n=8), and for subsequent five weeks they received once daily intraperitoneal injections of vehicle (0.5% hydroxypropylmethylcellulose, 1 ml/kg), SON-117 (0.001, 0.01, 0.1 and 1 mg/kg) or imipramine (10 mg/kg) as the reference treatment. The drugs were administered at approx. 10:00 AM and the weekly sucrose tests were carried out 24 h following the last drug injections. After five weeks all treatments were terminated and one additional sucrose test was carried out after one week of withdrawal. Stress was continued throughout the period of treatment and withdrawal.
After completion of the administration and withdrawal period, all control and stressed animals were placed in an open field (100 cm in diameter, 35 cm high) and allowed to explore two identical objects (cylinder-shaped object with walls painted white, 7 cm in diameter, 11 cm high) for the time required to complete 15 s of exploration of either object. For the retention trial conducted one hour later, one of the objects presented previously was replaced with a novel object (prism-shaped object with walls painted black, 5 cm wide, 14 cm high). Rats were returned to the open field for 5 min and the duration of exploration (i.e. sitting in close proximity to the objects, sniffing or touching them) of each object was measured separately by a trained observer. The data were calculated according to the following formula: [time of novel object exploration divided by time of novel plus familiar object exploration multiplied by 100]. The CMS and NOR data were analyzed by multiple analyses of variance with three between-subjects factors (stress/control, drug treatments and intakes in successive sucrose tests). The Fisher's LSD test was used for the post-hoc comparisons of means.

Sequence of 5-HT2A (P28223 whole entry): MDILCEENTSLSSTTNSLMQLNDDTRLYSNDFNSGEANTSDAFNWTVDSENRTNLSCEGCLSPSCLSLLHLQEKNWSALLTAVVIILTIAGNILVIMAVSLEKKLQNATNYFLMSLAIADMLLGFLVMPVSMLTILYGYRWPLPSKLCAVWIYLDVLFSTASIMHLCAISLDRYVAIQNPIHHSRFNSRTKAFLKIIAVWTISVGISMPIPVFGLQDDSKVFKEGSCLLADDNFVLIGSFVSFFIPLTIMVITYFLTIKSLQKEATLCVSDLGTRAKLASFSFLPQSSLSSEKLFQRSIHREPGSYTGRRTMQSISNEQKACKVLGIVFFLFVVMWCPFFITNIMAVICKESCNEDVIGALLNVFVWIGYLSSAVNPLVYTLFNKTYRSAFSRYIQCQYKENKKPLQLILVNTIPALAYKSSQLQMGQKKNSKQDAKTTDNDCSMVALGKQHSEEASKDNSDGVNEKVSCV

Cc1nnc(-c2cc3c(OC[C@@H](O)CN4CCC(c5ccc(Cl)c(Cl)c5)CC4)cccc3o2)o1 [SON-117, (S)-1-(4-(3,4-dichlorophenyl)piperidino)-3-(2-(5-methyl-1,3,4-oxadiazol-2-yl)benzo(b)furan-4-yloxy)-2-propanol hydrochloride]
affinity, 5-HT2A receptor binding [1]: high affinity
order of effects in electrophysiological studies [2]: 5-HT1A>5-HTT>5-HT2A>postsynaptic 5-HT1A
AUC, dependence on dose [3]: dose-proportional increase
Cmax, dependence on dose [3]: dose-proportional increase
effect of discontinuation of dosing on sleep EEG parameters, including REM sleep ([4]; SON-117): no evidence
slow wave sleep (SWS) ([4]; SON-117 1 mg, day 1 and day 14, second third of the night, hydrochloride): could increase; also recorded: increased
REM sleep, REM density/activity ([4]; SON-117 repeated dosing, two highest dosages (3 mg, 7.5 mg), particularly 7.5 mg, hydrochloride): could have REM sleep promoting effect; also recorded: increased
sleep continuity and sleep architecture parameters ([4]; SON-117 three doses tested (1, 3, 7.5 mg)): largely not influenced
dose at which rapid-onset normalization of sucrose intake was observed (as low as) ([5]; CMS model): 1 µg/kg
effect on sucrose intake one week after cessation of treatments ([5]; SON-117 0.001 mg/kg): maintained
time at which increase of sucrose consumption in stressed animals reached significance vs Week 0 ([5]; SON-117 0.001 and 0.01 mg/kg IP (only these doses significant vs Week 0)): first week
onset of action: enhancement of sucrose intakes reached statistical significance ([5]; SON-117 0.001 and 1.0 mg/kg): first week
effect on sucrose intake one week after cessation of treatments ([5]; SON-117 1 mg/kg): abolished
effectiveness in the CMS model ([5]; SON-117 0.01 and 0.1 mg/kg): less effective than imipramine
magnitude of action in the CMS model ([5]; SON-117 most active doses (0.001 and 1.0 mg/kg)): comparable to that of imipramine
sucrose intake in control animals, compared to vehicle ([5]; once daily IP for five weeks, imipramine 10 mg/kg, SON-117 all doses (0.001, 0.01, 0.1 and 1 mg/kg)): no significant effect
sucrose consumption in stressed animals, compared to vehicle ([5]; once daily IP for five weeks, imipramine 10 mg/kg, SON-117 all four doses (0.001-1 mg/kg), hydrochloride): significant effects; also recorded: enhanced
